One experiment deals with T1, recombinant human ARG1 (Homo sapiens, UniProt P05089).
T1 construct: purchased R&D System 5868-AR-010
T1 sequence (P05089 1-322): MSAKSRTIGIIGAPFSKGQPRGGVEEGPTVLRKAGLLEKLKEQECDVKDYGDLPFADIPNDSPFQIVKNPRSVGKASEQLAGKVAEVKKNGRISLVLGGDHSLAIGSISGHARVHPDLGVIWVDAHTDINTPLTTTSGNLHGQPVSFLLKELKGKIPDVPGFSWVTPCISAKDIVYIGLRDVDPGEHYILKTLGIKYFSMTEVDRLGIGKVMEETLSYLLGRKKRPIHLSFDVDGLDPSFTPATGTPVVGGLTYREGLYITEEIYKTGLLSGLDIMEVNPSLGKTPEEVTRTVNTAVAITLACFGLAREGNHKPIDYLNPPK
Briefly: Arginase enzymatic assay in vitro, recombinant human ARG1 (colorimetric urea detection). The class given is biochemical. Conditions: recombinant human arginase 1; read-out: IC50 Inh rhARG1. The text has this: (§1) Arginase catalyzes the hydrolysis of L-arginine into L-ornithine and urea. Urea amount produced by this reaction can be detected using a colorimetric assay and used as an indirect measurement of arginase activity. An adapted protocol from (Baggio, R., et al., J Pharmacol Exp Ther, 1999. 290(3): p. 1409-16) was used for the testing the ability of exemplary compounds of the invention to inhibit arginase enzymes from a variety of sources including recombinant human ARG1 and 2, lysates of human red blood cells (RBC) and intact murine macrophages, as described below.
(§2) Compounds of the invention were prepared from powder as 10 mM stock solutions in DMSO and stored in presence of N2 neutral atmosphere at −80° C. For IC50 determination and just before the assay, exemplary compounds were successively diluted to get the following concentrations: 210, 70, 21, 7, 2.1, 0.7, 0.21, 0.07, 0.021, 0.007, 0.0021 and 0.0007 μM (i.e., final concentrations in the wells of 30, 10, 3, 1, 0.3, 0.1, 0.03, 0.01, 0.003, 0.001, 0.0003, 0.0001 μM).
(§3) Assays were run in clear flat bottom 96-well plates (Nunclon, Cat. No. #167008) adding in each well the following solutions in this order: (1) 10 μl of Tris-HCl solution supplemented with 0.1% bovine serum albumin (BSA) containing 1.563 μg/ml recombinant human ARG1 (R&D System, Cat. No. #5868-AR-010), (2) 30 μl of Tris-HCl buffer containing 10 mM MnCl2 and (3) 10 μL of a pre-dilution of each test article or DMSO (vehicle). Compounds were allowed to interact with the enzyme-cofactor complex pre-incubating the plate at 37° C. for 30 min. To start the reaction, 20 μl of 50 mM L-arginine (Sigma Aldrich Cat. #A5006-100G) were added to each well in exception of the blank reaction (see below). All reactions were allowed to happen for 1 h at 37° C. To detect the urea production, reactions were stopped by adding 200 μl of a mixture of reagent A (4 mM o-phthalaldehyde in 50 mM Boric Acid, 1 M Sulfuric Acid, 0.03% Brij-35 (w/v)) and reagent B (4 mM N-(1-naphthyl)ethylenediamine in 50 mM Boric Acid, 1 M Sulfuric Acid, 0.03% Brij-35 (w/v)) in equal proportion. Color product was developed for 1 h at room temperature (RT) protected from light and then absorbance at 520 nm was measured using a Multifunction Microplate Reader (Synergy 4, Bioteck). Blank reactions were carried out by adding the L-arginine substrate only after the addition of mixture A-B. All reactions were carried out in duplicates.
(§4) The inhibition of urea production was calculated subtracting the absorbance from the blank reaction (zero enzymatic urea production) to the absorbance from all reactions and it was expressed as the percentage of the absorbance from the reaction containing the test article with respect to the absorbance from vehicle reaction (maximum of urea production).

Experiment [1] has as its target T2, native ARG1 enzyme in lysates of RBC (Homo sapiens, UniProt P05089).
T2 construct: native ARG1 enzyme in lysates of RBC; from tissue; host or cells: human red blood cell lysates from healthy donors
T2 sequence (P05089 1-322): T1 sequence (P05089 1-322)
Briefly: Arginase enzymatic assay in RBC lysates from healthy donors. Type of experiment: biochemical. The settings on record: human red blood cell lysates; read-out: IC50 Inh RBC.
Text: as §1, §2, §3, §4
For testing inhibitory activity over RBC lysates from healthy donors, 10 μl of Tris-HCl solution supplemented with 0.1% BSA containing 160 μg RBC lysates per well was used instead.

The next experiment deals with T3, recombinant human ARG2 (Homo sapiens, UniProt P78540).
T3 construct: purchased BPS Bioscience 71659
T3 sequence (P78540 23-354): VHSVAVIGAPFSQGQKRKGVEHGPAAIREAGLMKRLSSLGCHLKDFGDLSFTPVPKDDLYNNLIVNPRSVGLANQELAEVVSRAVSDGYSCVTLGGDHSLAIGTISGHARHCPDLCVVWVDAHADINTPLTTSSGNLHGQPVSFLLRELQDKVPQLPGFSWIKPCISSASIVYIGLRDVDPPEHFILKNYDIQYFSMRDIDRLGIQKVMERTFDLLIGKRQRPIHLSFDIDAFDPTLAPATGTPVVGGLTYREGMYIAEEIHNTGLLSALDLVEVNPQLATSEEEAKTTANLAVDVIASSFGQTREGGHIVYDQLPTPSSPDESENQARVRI
Briefly: Arginase enzymatic assay in vitro, recombinant human ARG2 (colorimetric urea detection). The class given is biochemical. The settings on record: recombinant human arginase 2; read-out: IC50 Inh rhARG2.
Text: as §1, §2, §3, §4
For testing inhibitory activity over recombinant human arginase II, 10 μl of Tris-HCl solution supplemented with 0.1% BSA containing 1.5 μg/ml recombinant human ARG2 (BPS Bioscience, Cat. No. #71659) was used instead of ARG1.

Experiment [2] addresses T4, arginase activity in intact BMM-M2 cells (Mus musculus, UniProt Q61176).
T4 construct: endogenous in cells; host or cells: bone-marrow derived macrophages from male C57BL/6 mice, polarised to M2 with IL-4
T4 sequence (Q61176 1-323): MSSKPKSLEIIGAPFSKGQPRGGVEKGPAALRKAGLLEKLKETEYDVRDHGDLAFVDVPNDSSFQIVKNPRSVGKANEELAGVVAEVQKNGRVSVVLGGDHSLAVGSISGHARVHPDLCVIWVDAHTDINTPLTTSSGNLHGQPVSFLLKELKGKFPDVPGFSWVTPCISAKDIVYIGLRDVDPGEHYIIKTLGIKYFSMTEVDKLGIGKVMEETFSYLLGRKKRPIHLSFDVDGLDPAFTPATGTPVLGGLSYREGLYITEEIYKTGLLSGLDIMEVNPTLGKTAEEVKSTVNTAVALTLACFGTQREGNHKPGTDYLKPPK
The experiment in a line: Cell-based arginase assay: urea production by cultured BMM-M2 cells. Conditions: 10 μM test compound, 24 h; for inhibition at 10 µM: read-out: Inh. urea production @10 μM (%). Here is the method: Murine bone-marrow derived macrophages (BMM) represent a convenient in vitro model that enables differentiation of these cells towards M1 or M2 macrophages. Briefly, male C57BL/6 mice 7-8 weeks old were euthanized by carbon dioxide asphyxiation. Femur and tibiae bones were removed under aseptic conditions and collected in a plate containing sterile ice-cold PBS 1×. After sterilization of bones in 70% ethanol during 1 min, bones were placed into a clean Petri dish containing fresh sterile ice-cold PBS 1×. The ends of each bone were cut and the marrow cavity was flushed using forceps and syringes filled with pre-warmed complete α-MEM growing medium (α-MEM without red phenol (Life Technologies, Cat. No. #41061-029) supplemented with 10% FBS, penicillin and streptomycin). Bone marrow (BM) cells were harvested in a 15 ml clean tube and centrifuged at 400 g for 8 min at RT. Supernatant was discarded and BM pellet was re-suspended in 5 ml Ammonium-Chloride-Potassium (ACK) buffer for 5 minutes at RT to lysis RBC. BM cell suspension was centrifuged at 400 g for 8 min at RT. Supernatant was discarded and BM cell pellet was re-suspended in complete α-MEM growing medium and passed through a 70 μm cell restrainer to eliminate solid contaminates and cellular aggregates. BM cells were seeded in 8 ml of complete α-MEM growing medium supplemented with 100 ng/ml recombinant mouse M-CSF (R&D Systems, Cat. No. #416-ML-050) in 100-mm dishes. BM cells were cultured overnight to get rid of contaminating stromal cells in a humidified incubator with 5% CO2 at 37° C. At the following day, non-adherent cells were collected in a clean 15-ml tube and centrifuged at 400 g for 8 min at RT. Cell pellet was re-suspended in complete α-MEM growing medium and counted using a hemocytometer Neubauer's chamber. Hematopoietic precursor cells were differentiated into BMM in presence of complete α-MEM growing medium supplemented 50 ng/ml M-CSF for 3 days. Finally to polarize BMM towards M2 phenotype, cells were incubated in presence 20 ng/ml of recombinant mouse IL-4 (R&D Systems, Cat. No. #404-ML-010) added to fresh complete α-MEM growing medium supplemented 50 ng/ml M-CSF for 24 h.
At the day of the experiment, BMM-M2 were treated for 24 h with vehicle (DMSO) or compounds of the invention at 1 and 10 μM prepared in fresh complete α-MEM growing medium supplemented 50 ng/ml M-CSF, 20 ng/ml IL-4 and 10 mM L-arginine (Cat. No. #A5006, Sigma Aldrich). At the next day, 70 μl aliquots of each treated culture media (supernatants) were transferred into a clear 96-well plate. Measurements of urea produced by BMM-M2 were performed using the adapted protocol detailed in Example B1. Wells without BMM-M2 containing only treatment media (vehicle) were used to determine the zero cell-derived urea production (blank). All treatments were carried out in triplicates.
The inhibition of urea production was calculated subtracting the absorbance from the blank to the absorbance from all treatments and it was expressed as the percentage of the absorbance from the reaction containing the test article treatment with respect to the absorbance from vehicle treatment (maximum of urea production).

Where only a bound is given, the exact number is not on record here.

As usually defined, the IC50 is the concentration that inhibits the measured activity by half. `NC(CCCCB(O)O)(C(=O)O)C1CCN(C2CCCc3cccnc32)CC1` (single isomer, unassigned) [Compound 32, 2-amino-6-borono-2-(1-(5,6,7,8-tetrahydroquinolin-8-yl)piperidin-4-yl)hexanoic acid]: the IC50 (on recombinant human ARG1; in experiment [1]; on recombinant human ARG2) was less than 500 nM in each case.

`CC(c1ccc(F)c(Cl)c1)N1CCC(C(N)(CCCCB(O)O)C(=O)O)CC1` (single isomer, unassigned) [Compound 89, 2-amino-6-borono-2-(1-(1-(3-chloro-4-fluorophenyl)ethyl)piperidin-4-yl)hexanoic acid]: the half-maximal inhibitory concentration (IC50) was less than 500 nM on recombinant human ARG1 and 500 to 5000 nM on recombinant human ARG2. Also, the “Inh. urea production @10 μM (%)” value in experiment [2] was “++ (25% < % inhibition < 15% at 10 μM test compound)”.

Consider `CC(c1c(Cl)cccc1Cl)N1CCC(C(N)(CCCCB(O)O)C(=O)O)CC1` (single isomer, unassigned) [Compound 91, 2-amino-6-borono-2-(1-(1-(2,6-dichlorophenyl)ethyl)piperidin-4-yl)hexanoic acid], for which the IC50 was less than 500 nM on recombinant human ARG1 and 500 to 5000 nM at recombinant human ARG2. The inhibition at 10 µM in experiment [2] is greater than 25%.

In the case of `CC(c1c(F)cccc1F)N1CCC(C(N)(CCCCB(O)O)C(=O)O)CC1` (single isomer, unassigned) [Compound 92, 2-amino-6-borono-2-(1-(1-(2,6-difluorophenyl)ethyl)piperidin-4-yl)hexanoic acid], the half-inhibitory concentration (IC50) at recombinant human ARG1 and at recombinant human ARG2 was 500 to 5000 nM throughout. For the same compound, the inhibition at 10 µM in experiment [2] was less than 15%.

Consider `NC(CCCCB(O)O)(C(=O)O)C1CCN(C2CCCc3cc(Cl)ccc32)CC1` (stereo not drawn) [Compound 16, 2-amino-6-borono-2-(1-(6-chloro-1,2,3,4-tetrahydronaphthalen-1-yl)piperidin-4-yl)hexanoic acid], for which the IC50 (on recombinant human ARG1; in experiment [1]; on recombinant human ARG2) was less than 500 nM in each case.

In the case of `NC(CCCCB(O)O)(C(=O)O)C1CCN(C2CCCc3cc(Cl)ccc32)C1` (stereo not drawn) [Compound 48, 2-amino-6-borono-2-[1-(6-chlorotetralin-1-yl)pyrrolidin-3-yl]hexanoic acid], the IC50 at recombinant human ARG1 and at recombinant human ARG2 was 500 to 5000 nM each time. Also, the inhibition at 10 µM in experiment [2] was less than 15%.

Consider `NC(=O)C(N)(CCCCB(O)O)C1CCN(C2CCc3cc(Cl)ccc32)CC1` (stereo not drawn) [Compound 81, (5,6-diamino-5-(1-(5-chloro-2,3-dihydro-1H-inden-1-yl)piperidin-4-yl)-6-oxohexyl)boronic acid], for which the IC50 was 500 to 5000 nM on recombinant human ARG1, less than 500 nM in experiment [1] and 500 to 5000 nM on recombinant human ARG2.

On to `NC(CCCCB(O)O)(C(=O)O)C1CCN(C2CCc3cc(Cl)ccc32)C1` (stereo not drawn) [Compound 82, 2-amino-6-borono-2-[1-(5-chloroindan-1-yl)pyrrolidin-3-yl]hexanoic acid], for which the IC50 is less than 500 nM on recombinant human ARG1 and 500 to 5000 nM at recombinant human ARG2. For the same compound, in experiment [2], the inhibition at 10 µM is greater than 25%.

(Values after patent publication US20220017541A1, “INHIBITORS OF ARGINASE” (Black Belt Tx Ltd, priority 2018, published 2022).)
